Assay results as given in ChEMBL document CHEMBL4376846, “Peptide-β-lactam Inhibitors of Dengue and West Nile Virus NS2B-NS3 Protease Display Two Distinct Binding Modes” (J Med Chem, 2020).
Activity calls are given as the source filed them. The rule behind the calls is not given here. Peptide text beside a SMILES is read from it. * marks the point of attachment. Bz = O=C(c1ccccc1)*

What was measured:
[1] = target: Genome polyprotein (dengue virus type 2) (UniProt P29990); assay: Inhibition of Dengue virus NS2B-NS3 protease at 50 uM using 2-Abz-Nle-Lys-Arg-Arg-Ser-(3-NO2)-Tyr-NH2 FRET substrate preincubated for 15 mins followed by substrate addition measured after 15 mins by fluorimetric analysis relative to control
[2] = target: Genome polyprotein (West Nile virus) (UniProt P06935); assay: Inhibition of West Nile virus NS2B-NS3 protease at 50 uM using 2-Abz-Nle-Lys-Arg-Arg-Ser-(3-NO2)-Tyr-NH2 FRET substrate preincubated for 15 mins followed by substrate addition measured after 15 mins by fluorimetric analysis relative to control
Trypsin (Homo sapiens) = Trypsin (Homo sapiens) (UniProt P07477+P07478+P35030); assay: Inhibition of trypsin (unknown origin) at 50 uM using Boc-Val-Pro-Arg-AMC as substrate preincubated for 15 mins followed by substrate addition measured after 10 mins by fluorimetric analysis relative to control; assay type: protein assay
Genome polyprotein [3] = target: T1, Genome polyprotein (dengue virus type 2, UniProt P29990); assay: Inhibition of Dengue virus NS2B-NS3 protease using 2-Abz-Nle-Lys-Arg-Arg-Ser-(3-NO2)-Tyr-NH2 FRET substrate preincubated for 15 mins followed by substrate addition measured after 15 mins by fluorimetric analysis
Huh-7 = assay: Cytotoxicity against human HuH7 cells infected with Dengue virus serotype 2 assessed as effect on cell viability up to 50 uM after 48 hrs by Celltiter-blue assay; assay type: cell-based; details: huh-7, 48 h
dengue virus type 2 [4] = assay: Antiviral activity against Dengue virus serotype 2 infected in HuH7 cells assessed as reduction in viral titer after 48 hrs by plaque assay; assay type: functional, organism-based; details: Huh-7, 48 h
[5] = target: Prothrombin (Homo sapiens) (UniProt P00734); assay: Inhibition of thrombin (unknown origin) at 50 uM using Boc-Val-Pro-Arg-AMC as substrate preincubated for 15 mins followed by substrate addition measured after 10 mins by fluorimetric analysis relative to control
[6] = target: Genome polyprotein (dengue virus type 2) (UniProt P29990); assay: Binding affinity to Dengue virus NS2B-NS3 protease assessed as presence of lysine and benzyloxy-phenylglycine residues in active site
Genome polyprotein [7] = target: Genome polyprotein (West Nile virus, UniProt P06935); assay: Inhibition of West Nile virus NS2B-NS3 protease using 2-Abz-Nle-Lys-Arg-Arg-Ser-(3-NO2)-Tyr-NH2 FRET substrate preincubated for 15 mins followed by substrate addition measured after 15 mins by fluorimetric analysis
[8] = target: Genome polyprotein (dengue virus type 2) (UniProt P29990); assay: Competitive inhibition of Dengue virus NS2B-NS3 protease assessed as increase in intrinsic fluorescence of tryptophan at active site at 20 to 60 uM measured after 5 mins in presence of quencher by tryptophan quenching assay
[9] = target: Genome polyprotein (dengue virus type 2) (UniProt P29990); assay: Competitive inhibition of Dengue virus NS2B-NS3 protease assessed as increase in intrinsic fluorescence of tryptophan at active site measured after 5 mins in presence of quencher by tryptophan quenching assay
[10] = target: Genome polyprotein (dengue virus type 2) (UniProt P29990); assay: Reversible inhibition of Dengue virus NS2B-NS3 protease assessed as increase in intrinsic fluorescence of tryptophan at active site at 60 uM pretreated for 16 hrs followed by quencher addition measured after 5 mins by tryptophan quenching assay
[11] = target: Genome polyprotein (dengue virus type 2) (UniProt P29990); assay: (§1) Reversible inhibition of Dengue virus NS2B-NS3 protease at 60 uM preincubated for 3 to 6 hrs followed by 2-Abz-Nle-Lys-Arg-Arg-Ser-(3-NO2)-Tyr-NH2 FRET substrate addition followed by further compound dilution to 1.7 uM and measured every 30 mins for 2 hrs by dilution experiment based fluorimetric analysis
[12] = target: Genome polyprotein (dengue virus type 2) (UniProt P29990); assay: as §1, with “Time dependent irreversible” for “Reversible”
dengue virus type 2 [13] = assay: Binding affinity to Dengue virus serotype 2 […]-NS3 protease S135A mutant expressed in Escherichia coli BL21 lambda (DE3) cells assessed as effect on intrinsic fluorescence of tryptophan at active site at 20 to 60 uM measured after 5 mins in presence of quencher by tryptophan quenching assay
Genome polyprotein [14] = target: T1, Genome polyprotein; assay: Substrate activity at Dengue virus NS2B-NS3 protease assessed as time taken for peptide cleavage at 100 uM incubated for 11 hrs by HPLC-ESI/MS analysis; assay type: ADME
dengue virus type 2 [15] = assay: Binding affinity to Dengue virus serotype 2 […]-NS3 protease S135A mutant expressed in Escherichia coli BL21 lambda (DE3) cells assessed as effect on intrinsic fluorescence of tryptophan at active site up to 20 uM by tryptophan quenching assay
[16] = target: Genome polyprotein (dengue virus type 2) (UniProt P29990); assay: Competitive inhibition of Dengue virus NS2B-NS3 protease assessed as increase in intrinsic fluorescence of tryptophan at active site up to 20 uM measured after 5 mins by tryptophan quenching assay

CCCC[C@H](NC(=O)[C@H](CCCCN)NC(=O)c1ccccc1)C(=O)N[C@@H]1CN(c2ccccc2)C1=O
inhibition [1]: < 20% | inhibition [2]: 24.4% | inhibition (Trypsin (Homo sapiens)): > 20%

N=C(N)NCCC[C@H](NC(=O)c1ccccc1)C(=O)N[C@@H](CCCCN)C(=O)N[C@@H](C(=O)N[C@H]1CN(c2ccc(F)cc2)C1=O)c1ccc(OCc2ccccc2)cc1
inhibition [1]: 96.3% | IC50 (Genome polyprotein [3]): 2.5 µM | inhibition [2]: 60.9% | Activity (Huh-7): Non-Toxic | EC50 (dengue virus type 2 [4]): 4.1 µM

N=C(N)NCCC[C@H](NC(=O)c1ccccc1)C(=O)N[C@@H](CCCCN)C(=O)N[C@@H](C(=O)N[C@@H]1CN(c2ccc(F)cc2)C1=O)c1ccc(OCc2ccccc2)cc1
inhibition [1]: 65.5% | inhibition [2]: 43.4% | inhibition [5]: < 20% | inhibition (Trypsin (Homo sapiens)): < 20%

NCCCC[C@H](NC(=O)c1ccccc1)C(=O)N[C@@H](CCCCN)C(=O)N[C@@H]1CN(c2ccccc2)C1=O
inhibition [1]: 39.7% | inhibition [2]: 51.7% | inhibition (Trypsin (Homo sapiens)): > 20%

Cc1ccc(N2C[C@@H](NC(=O)[C@H](NC(=O)[C@H](CCCCN)NC(=O)[C@H](CCCNC(=N)N)NC(=O)c3ccccc3)c3ccc(OCc4ccccc4)cc3)C2=O)cc1
inhibition [1]: 73.5% | IC50 (Genome polyprotein [3]): 15.9 µM | inhibition [2]: 52.9% | inhibition [5]: < 20% | inhibition (Trypsin (Homo sapiens)): < 20%

CCCC[C@H](NC(=O)[C@H](CCCNC(=N)N)NC(=O)c1ccccc1)C(=O)N[C@H]1CN(c2ccccc2)C1=O
inhibition [1]: < 20% | inhibition [2]: < 20% | inhibition (Trypsin (Homo sapiens)): > 20%

N=C(N)NCCC[C@H](NC(=O)c1ccccc1)C(=O)N[C@@H](CCCCN)C(=O)O (Bz-Arg-Lys-OH)
Activity [6]: Active

Cc1cccc(N2C[C@H](NC(=O)[C@H](NC(=O)[C@H](CCCCN)NC(=O)[C@H](CCCNC(=N)N)NC(=O)c3ccccc3)c3ccc(OCc4ccccc4)cc3)C2=O)c1
inhibition [1]: 96.5% | IC50 (Genome polyprotein [3]): 2.8 µM | inhibition [2]: 46.8%

N=C(N)NCCC[C@H](NC(=O)c1ccccc1)C(=O)N[C@@H](CCCCN)C(=O)N[C@H]1CN(c2ccccc2)C1=O
inhibition [1]: 57.1% | inhibition [2]: 81.4% | IC50 (Genome polyprotein [7]): 22.5 µM

N[C@@H](C(=O)N[C@H]1CN(c2ccccc2)C1=O)c1ccc(OCc2ccccc2)cc1
Activity [6]: Active

N=C(N)NCCC[C@H](NC(=O)c1ccccc1)C(=O)N[C@@H](CCCCN)C(=O)N[C@@H](C(=O)N[C@H]1CN(c2ccccc2)C1=O)c1ccc(OCc2ccccc2)cc1
inhibition [1]: 96% | IC50 (Genome polyprotein [3]): 2.3 µM | inhibition [2]: 60.1% | inhibition [8]: Active | inhibition [9]: Dose-dependent effect | inhibition [10]: Active | inhibition [11]: inactive | inhibition [12]: inactive | Activity (dengue virus type 2 [13]): inactive | Activity (Huh-7): Non-Toxic | EC50 (dengue virus type 2 [4]): 11.7 µM | Time (Genome polyprotein [14]): 14 h

N=C(N)NCCC[C@H](NC(=O)[C@H](CCCCN)NC(=O)c1ccccc1)C(=O)N[C@@H]1CN(c2ccccc2)C1=O
inhibition [1]: < 20% | inhibition [2]: < 20%

Cc1cccc(N2C[C@@H](NC(=O)[C@H](NC(=O)[C@H](CCCCN)NC(=O)[C@H](CCCNC(=N)N)NC(=O)c3ccccc3)c3ccc(OCc4ccccc4)cc3)C2=O)c1
inhibition [1]: 77.7% | IC50 (Genome polyprotein [3]): 16.4 µM | inhibition [2]: 45.1% | inhibition [5]: < 20% | inhibition (Trypsin (Homo sapiens)): < 20%

N=C(N)NCCC[C@H](NC(=O)c1ccccc1)C(=O)N[C@@H](CCCCN)C(=O)N[C@@H](C(=O)N[C@H]1CN(c2cccc(F)c2)C1=O)c1ccc(OCc2ccccc2)cc1
inhibition [1]: 96.8% | IC50 (Genome polyprotein [3]): 1.9 µM | inhibition [2]: 64.1%

COc1cccc(COc2ccc([C@@H](NC(=O)[C@H](CCCCN)NC(=O)[C@H](CCCNC(=N)N)NC(=O)c3ccc(-c4cccs4)s3)C(N)=O)cc2)c1
Activity (dengue virus type 2 [15]): Active | inhibition [16]: Active

N=C(N)NCCC[C@H](NC(=O)c1ccccc1)C(=O)N[C@@H](CCCCN)C(=O)N[C@@H](C(=O)N[C@@H]1CN(c2cccc(F)c2)C1=O)c1ccc(OCc2ccccc2)cc1
inhibition [1]: 80.8% | IC50 (Genome polyprotein [3]): 12.4 µM | inhibition [2]: 61.6% | inhibition [5]: < 20% | inhibition (Trypsin (Homo sapiens)): < 20%

NCCCC[C@H](NC(=O)c1ccccc1)C(=O)N[C@@H](CCCCN)C(=O)N[C@H]1CN(c2ccccc2)C1=O
inhibition [1]: < 20% | inhibition [2]: < 20%

N=C(N)NCCC[C@H](NC(=O)c1ccccc1)C(=O)N[C@@H](CCCCN)C(=O)N[C@@H]1CN(c2ccccc2)C1=O
inhibition [1]: 71.6% | IC50 (Genome polyprotein [3]): 17.7 µM | inhibition [2]: 27.8%

N=C(N)NCCC[C@H](NC(=O)[C@H](CCCCN)NC(=O)c1ccccc1)C(=O)N[C@H]1CN(c2ccccc2)C1=O
inhibition [1]: < 20% | inhibition [2]: < 20%

CCCC[C@H](NC(=O)[C@H](CCCNC(=N)N)NC(=O)c1ccccc1)C(=O)N[C@@H]1CN(c2ccccc2)C1=O
inhibition [1]: < 20% | inhibition [2]: < 20%

CCCC[C@H](NC(=O)[C@H](CCCCN)NC(=O)c1ccccc1)C(=O)N[C@H]1CN(c2ccccc2)C1=O
inhibition [1]: < 20% | inhibition [2]: < 20%

N=C(N)NCCC[C@H](NC(=O)c1ccccc1)C(=O)N[C@@H](CCCCN)C(=O)N[C@@H](C(N)=O)c1ccc(OCc2ccccc2)cc1
Time (Genome polyprotein [14]): 7 h

N=C(N)NCCC[C@H](NC(=O)c1ccccc1)C(=O)N[C@@H](CCCCN)C(=O)N[C@@H](C(=O)N[C@@H]1CN(c2ccccc2)C1=O)c1ccc(OCc2ccccc2)cc1
inhibition [1]: 68.8% | inhibition [2]: 46.9% | inhibition [5]: < 20% | inhibition (Trypsin (Homo sapiens)): < 20%

Cc1ccc(N2C[C@H](NC(=O)[C@H](NC(=O)[C@H](CCCCN)NC(=O)[C@H](CCCNC(=N)N)NC(=O)c3ccccc3)c3ccc(OCc4ccccc4)cc3)C2=O)cc1
inhibition [1]: 95.9% | IC50 (Genome polyprotein [3]): 2.7 µM | inhibition [2]: 60.3%
